For seven compounds, TGI results are on record in PubChem BioAssay (NCI).

Among the test systems are A498 renal; A549 NSCLC; CCRF-CEM leukemia; DU-145 prostate; HCT-116 colon; HL-60(TB) leukemia; MCF7 breast; MDA-MB-435; NCI-H226 lung; NCI-H23 lung; NCI-H460 lung; NCI/ADR-RES ovarian; OVCAR-3 ovarian; OVCAR-8 ovarian; RXF 393 renal; SK-MEL-5 melanoma; SNB-19 CNS; SNB-75 CNS; SW-620 colon; MALME-3M melanoma.
Holding throughout (test): NCI anticancer screen, dose series, 48 h

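Step 1: Grow cells in 96-well plates. Step 2: Expose to compound for 48 hours at 5 concentrations. Step 3: Interpolate endpoints linearly; if unreached, use highest concentration. Definition used: TGI = concentration required for complete inhibition of growth.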

As for `Cc1cc(C)n(C(=O)CSc2nnc(SCC(=O)n3nc(C)cc3C)s2)n1`, the TGI with A498 renal, in the assay on A549 NSCLC, with CCRF-CEM leukemia, with DU-145 prostate, in the assay with HCT-116 colon and in the assay with HL-60(TB) leukemia was greater than 100 µM in each case. Also, the TGI with MCF7 breast, with MDA-MB-435, with NCI-H226 lung, in the assay with NCI-H23 lung, in the assay with NCI-H460 lung and in the assay on NCI/ADR-RES ovarian was greater than 100 µM throughout. The TGI with OVCAR-3 ovarian, in the assay with OVCAR-8 ovarian, with RXF 393 renal, with SK-MEL-5 melanoma, in the assay with SNB-19 CNS and with SNB-75 CNS was greater than 100 µM throughout. Further, in the assay on SW-620 colon, the TGI was greater than 100 µM.

For the compound `CC1=CC(C)(C)Nc2ccc(CSc3ccccc3)cc21`, the TGI is 74.4 µM in the assay with A498 renal; 51.4 µM in the assay on A549 NSCLC; 71.5 µM in the assay on DU-145 prostate; 91.9 µM in the assay with HCT-116 colon; 47.5 µM in the assay on MALME-3M melanoma; 60.9 µM with MCF7 breast. The TGI with MDA-MB-435 was 63.4 µM; with NCI-H226 lung, greater than 100 µM; in the assay with NCI-H23 lung it was greater than 100 µM; in the assay on NCI-H460 lung, 67.4 µM; with NCI/ADR-RES ovarian it was greater than 100 µM; with OVCAR-3 ovarian, 39.5 µM. Further, the TGI is greater than 100 µM in the assay with OVCAR-8 ovarian; 38.3 µM in the assay on RXF 393 renal; 32.9 µM in the assay on SK-MEL-5 melanoma; greater than 100 µM with SNB-19 CNS; 51.3 µM with SNB-75 CNS; greater than 100 µM with SW-620 colon.

Regarding `Nc1ccccc1N=Nc1c(S(=O)(=O)O)cc2cc(S(=O)(=O)O)cc(O)c2c1O`, the TGI in the assay on A498 renal, with A549 NSCLC, with CCRF-CEM leukemia, with DU-145 prostate, in the assay with HCT-116 colon and with MALME-3M melanoma was greater than 100 µM in each case. The TGI in the assay on MCF7 breast, in the assay with MDA-MB-435, in the assay on NCI-H226 lung, in the assay on NCI-H23 lung, with NCI/ADR-RES ovarian and in the assay with OVCAR-3 ovarian was greater than 100 µM each time. In addition, the TGI in the assay on OVCAR-8 ovarian, in the assay with RXF 393 renal, in the assay on SK-MEL-5 melanoma, in the assay with SNB-19 CNS, with SNB-75 CNS and in the assay with SW-620 colon was greater than 100 µM throughout.

`CC[C@@H](/C=C\CCC1(C[C@@H](N)CCC=C(C)C)OCCO1)O[Si](C(C)C)(C(C)C)C(C)C`: the TGI stood at 32.4 µM in the assay on A498 renal; 33.1 µM in the assay with A549 NSCLC; 58.7 µM with CCRF-CEM leukemia; 40.3 µM in the assay on DU-145 prostate; 31.4 µM with HCT-116 colon; 23 µM with HL-60(TB) leukemia. The TGI with MCF7 breast amounted to 30.2 µM; in the assay with MDA-MB-435, 34.9 µM; in the assay with NCI-H226 lung, 34.2 µM; with NCI-H23 lung, 38.2 µM; with NCI-H460 lung, 34.9 µM; in the assay on NCI/ADR-RES ovarian, 33.9 µM. Besides, the TGI in the assay on OVCAR-3 ovarian was found to be 38.8 µM; in the assay with OVCAR-8 ovarian it was 26.4 µM; in the assay with RXF 393 renal, 37.3 µM; in the assay on SK-MEL-5 melanoma, 32.7 µM; in the assay on SNB-19 CNS it was 32.8 µM; in the assay on SNB-75 CNS, 34.6 µM. The TGI in the assay on SW-620 colon was found to be 51.6 µM.

As to `Oc1cc(CN2COc3ccccc32)c(O)cc1CNC1CCCCC1`, the TGI in the assay on A498 renal was 49.9 µM; in the assay on A549 NSCLC, greater than 100 µM; with CCRF-CEM leukemia it was greater than 100 µM; in the assay with DU-145 prostate, greater than 100 µM; in the assay with HCT-116 colon, 35.3 µM; in the assay with MALME-3M melanoma, 38.2 µM. In addition, the TGI in the assay with MCF7 breast is 42.7 µM; in the assay with MDA-MB-435, 60.1 µM; with NCI-H23 lung, 64.5 µM; in the assay with NCI-H460 lung, 32.3 µM; with NCI/ADR-RES ovarian, greater than 100 µM; with OVCAR-3 ovarian, greater than 100 µM. Further, the TGI is 57.5 µM with OVCAR-8 ovarian; 71.8 µM with RXF 393 renal; 35.2 µM in the assay with SK-MEL-5 melanoma; greater than 100 µM with SNB-19 CNS; 38.9 µM in the assay on SNB-75 CNS; greater than 100 µM in the assay with SW-620 colon.

With `O=C1/C(=C/c2cccs2)NC(=S)N1CN1CCCC(CO)C1` (stereo unspecified), the TGI in the assay with A498 renal, in the assay with A549 NSCLC, with CCRF-CEM leukemia, in the assay with DU-145 prostate, in the assay with HCT-116 colon and in the assay on MALME-3M melanoma was greater than 100 µM each time. The TGI in the assay on MCF7 breast, in the assay on MDA-MB-435, in the assay with NCI-H226 lung, in the assay with NCI-H23 lung, with NCI/ADR-RES ovarian and in the assay on OVCAR-3 ovarian was greater than 100 µM throughout. The TGI with OVCAR-8 ovarian, in the assay with SK-MEL-5 melanoma, in the assay with SNB-19 CNS, with SNB-75 CNS and in the assay on SW-620 colon was greater than 100 µM throughout.

`CCN(CC)COC(=S)S`: the TGI with A498 renal, in the assay on A549 NSCLC, in the assay on DU-145 prostate, with HCT-116 colon, in the assay on MALME-3M melanoma and in the assay on MCF7 breast was greater than 100 µM throughout. In addition, the TGI in the assay on MDA-MB-435, with NCI-H226 lung, in the assay with NCI-H23 lung, with NCI-H460 lung, with NCI/ADR-RES ovarian and in the assay with OVCAR-8 ovarian was greater than 100 µM in each case. In addition, the TGI in the assay with RXF 393 renal is greater than 56.1 µM; in the assay on SK-MEL-5 melanoma it was greater than 100 µM; in the assay with SNB-19 CNS, greater than 100 µM; in the assay with SNB-75 CNS, greater than 90.2 µM; with SW-620 colon it was 78.1 µM.
